Read-outs that look alike come from different tables or passages of the source.
Assays:
HoblOBP3 = HoblOBP3 (Holotrichia oblita, UniProt G9BWQ7); assay: biochemical; format: binding
Method: (§1) N-phenyl-1-naphthylamine (1-NPN) was selected as a probe to measure the affinity of the 1-NPN fluorescent ligand to proteins. A 1-cm light path quartz cuvette was used, and the fluorescence spectra were recorded on a Lengguang 970 CRT spectrofluorimeter (Shanghai Jingmi, China) at room temperature in a right angle configuration. The parameter selection was such that the slit widths for both excitation and emission were 10 nm. 1-NPN was excited at 337 nm and the emission spectra were recorded between 350 and 550 nm. Spectra were recorded using high-speed scanning.
(§2) The 2 µM protein solution was dissolved in 50 mM Tris-HCl buffer with pH 7.4, and the ligands were dissolved in chromatographically pure methanol as a 1 mM stock solution. 1-NPN was dissolved in chromatographically pure methanol as a 1 mM stock solution.
(§3) To determine the dissociation constants, the intensity values corresponding to the maximum fluorescence emission were plotted against free ligand concentrations. Assuming that the protein was 100% active and that the stoichiometric ratio between the protein and ligand was 1:1 at saturation, the bound ligand was determined from the fluorescence intensity values. The curves were then linearized using Scatchard plots. The K1-NPN values were estimated using GraphPad Prism 5 Software by nonlinear regression for a unique binding site. The dissociation constants of the competitors (Ki) were calculated from the corresponding IC50 values using the following equation: Ki = [IC50]/1+[1-NPN]/K1-NPN. […] [1-NPN] represented the free concentration of 1-NPN, and K1-NPN represented the dissociation constant of the complex protein/1-NPN [76].

HoblOBP4 = HoblOBP4 (Holotrichia oblita, UniProt G9BWQ8); assay: biochemical; format: binding
HoblOBP4, sequence (G9BWQ8 entry or part of it): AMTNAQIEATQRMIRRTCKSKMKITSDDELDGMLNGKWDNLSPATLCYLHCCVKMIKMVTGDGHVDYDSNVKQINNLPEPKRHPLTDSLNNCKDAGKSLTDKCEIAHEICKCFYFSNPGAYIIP
Method: as §1, §2, §3

[1] = HoblOBP3, dash = IC50 exceeded 50 µM, read-out: IC50 (dash)
[2] = HoblOBP3, dash = ligand whose IC50 exceeded 50 µM, Ki not given, read-out: Ki (dash)
[3] = pH 7.4, HoblOBP3, at the ligand concentration 24 µM, protein and 1-NPN both 2 µM, read-out: Int (fluorescence intensity as percent of the initial fluorescence)
[4] = HoblOBP4, dash = IC50 exceeded 50 µM, read-out: IC50 (dash)
[5] = HoblOBP4, dash = ligand whose IC50 exceeded 50 µM, Ki not given, read-out: Ki (dash)
[6] = pH 7.4, HoblOBP4, at the ligand concentration 24 µM, protein and 1-NPN both 2 µM, read-out: Int (fluorescence intensity as percent of the initial fluorescence)
[7] = HoblOBP4, calculated from IC50 and K1-NPN, read-out: Ki
[8] = HoblOBP4, protein and 1-NPN both 2 µM, ligand titrated 2–50 µM, read-out: IC50 (concentration of ligand halving the initial fluorescence intensity)
[9] = pH 7.4, read-out: Int (fluorescence intensity as percent of the initial fluorescence)
[10] = HoblOBP3, at the ligand concentration 24 µM, protein and 1-NPN both 2 µM
[11] = HoblOBP4, at the ligand concentration 24 µM, protein and 1-NPN both 2 µM

HoblOBP3, sequence (G9BWQ7 entry or part of it): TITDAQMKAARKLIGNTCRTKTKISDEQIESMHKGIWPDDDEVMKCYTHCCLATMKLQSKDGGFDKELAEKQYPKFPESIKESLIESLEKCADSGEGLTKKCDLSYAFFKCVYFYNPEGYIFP

| IC50 (HoblOBP3; [1]) [µM] | Ki (HoblOBP3; [2]) [µM] | activity at 24 µM (HoblOBP3; [3]) [%] | activity at 24 µM (HoblOBP4; [6]) [%] | Ki (HoblOBP4; [7]) [µM] | IC50 (HoblOBP4; [8]) [µM] | SMILES | IC50 (HoblOBP3) [µM] | Ki (HoblOBP3) [µM] | IC50 (HoblOBP4) [µM] | Ki (HoblOBP4) [µM] | also measured |
| --- | --- | --- | --- | --- | --- | --- | --- | --- | --- | --- | --- |
| > 50 | > 50 | 86 | 68 |  |  | CCCCCCCCCC=O [1-Decanal] |  |  |  |  | IC50 (HoblOBP4; [4]): > 50 µM; Ki (HoblOBP4; [5]): > 50 µM |
| > 50 | > 50 | 70 | 46 | 15.4 | 21 | CCCCCCCO [1-Heptanol] |  |  |  |  |  |
| > 50 | > 50 | 91 | 45 | 8.8 | 12 | CCCCCCO [1-Hexanol] |  |  |  |  |  |
| > 50 | > 50 | 71 | 46 | 11.8 | 16 | CCCCCCCCCO [1-Nonanol] |  |  |  |  |  |
| > 50 | > 50 | 86 | 54 | 29.4 | 40 | C=CC(O)CCCCC (stereo not drawn) [1-Octen-3-ol] |  |  |  |  |  |
|  |  | 65 | 44 | 11.8 | 16 | CCCCC=O [1-Pentanal] |  |  |  |  | Ki (HoblOBP3; HoblOBP3, calculated from IC50 and K1-NPN, read-out: Ki): 26.8 µM; IC50 (HoblOBP3; HoblOBP3, protein and 1-NPN both 2 µM, ligand titrated 2–50 µM, read-out: IC50 (concentration of ligand halving the initial fluorescence intensity)): 41 µM |
| > 50 | > 50 | 70 | 49 | 16.9 | 23 | O=C1C=CCCC1 [2-Cyclohexen-1-one] |  |  |  |  |  |
| > 50 | > 50 | 68 | 49 | 14 | 19 | CC(C)(C)C1CCC(O)CC1 (stereo not drawn) [4-tert-Butyl cyclohexanol] |  |  |  |  |  |
|  |  |  |  |  |  | CC(=O)CCC=C(C)C [6-Methyl-5-hepten-2-one] | > 50 | > 50 | 32 | 23.5 | activity at 24 µM (HoblOBP3; [9]): 78%; activity at 24 µM (HoblOBP4; [9]): 52% |
| > 50 | > 50 | 78 | 56 | 29.4 | 40 | CC/C=C\CCOC(C)=O [(Z)-3-Hexenyl acetate] |  |  |  |  |  |
|  |  |  |  |  |  | O=Cc1ccccc1 [Benzaldehyde] | > 50 | > 50 | 17 | 12.5 | activity at 24 µM (HoblOBP3; [9]): 68%; activity at 24 µM (HoblOBP4; [9]): 44% |
| > 50 | > 50 | 69 | 40 | 8.1 | 11 | CCCCOC(=O)c1ccccc1 [Butyl Benzoate] |  |  |  |  |  |
| > 50 | > 50 |  |  |  |  | CCCCCCCCCC [Decane] |  |  |  |  | IC50 (HoblOBP4; [4]): > 50 µM; Ki (HoblOBP4; [5]): > 50 µM |
|  |  |  |  |  |  | CC(C)=CCC/C(C)=C/CO [Geraniol] | > 50 | > 50 | 16 | 11.8 | activity at 24 µM (HoblOBP3; [9]): 79%; activity at 24 µM (HoblOBP4; [9]): 44% |
| > 50 | > 50 | 76 | 50 |  | 24 | CCOC(=O)CN [Glycine ethyl ester] |  |  |  |  |  |
| > 50 | > 50 | 53 | 36 | 2.9 | 4 | CCCCCCOC(=O)c1ccccc1 [Hexyl benzoate] |  |  |  |  |  |
| > 50 | > 50 | 68 | 49 | 17.7 | 24 | CC[C@H](C)[C@H](N)C(=O)OC [L-Isoleucine methyl ester] |  |  |  |  |  |
| > 50 | > 50 |  |  | 14.7 | 20 | CCOC(=O)[C@@H]1CCCN1 [L-Proline ethyl ester] |  |  |  |  | Int (fluorescence intensity as percent of the initial fluorescence) (HoblOBP3; [10]): 70%; Int (fluorescence intensity as percent of the initial fluorescence) (HoblOBP4; [11]): 47% |
| > 50 | > 50 |  |  |  |  | CC(C)[C@@H]1CC[C@@H](C)C[C@H]1OC(=O)c1ccccc1O [Menthyl salicylate] |  |  |  |  | Int (fluorescence intensity as percent of the initial fluorescence) (HoblOBP3; [10]): 75%; Int (fluorescence intensity as percent of the initial fluorescence) (HoblOBP4; [11]): 54%; IC50 (HoblOBP4; [4]): > 50 µM; Ki (HoblOBP4; [5]): > 50 µM |
| > 50 | > 50 | 74 | 56 |  |  | C=CC(=C)CCC=C(C)C [Myrcene] |  |  |  |  | IC50 (HoblOBP4; [4]): > 50 µM; Ki (HoblOBP4; [5]): > 50 µM |
| > 50 | > 50 |  |  |  |  | CCCCCCCCC [Nonane] |  |  |  |  | IC50 (HoblOBP4; [4]): > 50 µM; Ki (HoblOBP4; [5]): > 50 µM |
| > 50 | > 50 | 66 | 52 | 20.6 | 28 | OCCc1ccccc1 [Phenethyl alcohol] |  |  |  |  |  |
| > 50 | > 50 | 81 | 48 | 14.7 | 20 | CCCOC(=O)c1ccccc1 [Propyl benzoate] |  |  |  |  |  |
|  |  |  |  |  |  | CC1=CCC(O)(C(C)C)CC1 (stereo not drawn) [Terpinen-4-ol] | > 50 | > 50 | 21 | 15.4 | activity at 24 µM (HoblOBP3; [9]): 75%; activity at 24 µM (HoblOBP4; [9]): 48% |
|  |  |  |  |  |  | CC/C=C\CCO [cis-3-Hexen-1-ol] | > 50 | > 50 | 17 | 12.5 | activity at 24 µM (HoblOBP3; [9]): 81%; activity at 24 µM (HoblOBP4; [9]): 46% |
|  |  |  |  |  |  | CCC/C=C/C=O [trans-2-Hexenal] | > 50 | > 50 | 11 | 8.1 | activity at 24 µM (HoblOBP3; [9]): 74%; activity at 24 µM (HoblOBP4; [9]): 39% |
|  |  |  |  |  |  | CC(=O)/C=C/C1C(C)=CCCC1(C)C (stereo not drawn) [α-Ionone] | 16 | 10.4 | 19 | 14 | activity at 24 µM (HoblOBP3; [9]): 41%; activity at 24 µM (HoblOBP4; [9]): 45% |
|  |  |  |  |  |  | C=C1CC/C=C(\C)CC[C@@H]2[C@@H]1CC2(C)C [β-Caryophyllene] | > 50 | > 50 | > 50 | > 50 |  |

| SMILES | IC50 (HoblOBP3; [1]) [µM] | Ki (HoblOBP3; [2]) [µM] | activity at 24 µM (HoblOBP3; [3]) [%] | activity at 24 µM (HoblOBP4; [6]) [%] | Ki (HoblOBP4; [7]) [µM] | IC50 (HoblOBP4; [8]) [µM] | IC50 (HoblOBP3) [µM] | Ki (HoblOBP3) [µM] | IC50 (HoblOBP4) [µM] | Ki (HoblOBP4) [µM] | also measured |
| --- | --- | --- | --- | --- | --- | --- | --- | --- | --- | --- | --- |
| CCCCCC=O [1-Hexanal] |  |  | 68 | 42 |  |  | > 50 | > 50 | 15 | 11 |  |
| O=CCc1ccccc1 [Benzeneacetaldehyde] | > 50 | > 50 |  |  |  |  |  |  |  |  | IC50 (HoblOBP4; [4]): > 50 µM; Ki (HoblOBP4; [5]): > 50 µM |
| CCCCCCC [Heptane] |  |  | 63 | 43 |  |  | > 50 | > 50 | 16 | 11.8 |  |
| C=C(C)C1CC=C(C)CC1 (stereo not drawn) [Limonene] |  |  | 56 | 52 |  |  | > 50 | > 50 | > 50 | > 50 |  |
| CCCCCCCC [Octane] | > 50 | > 50 |  |  | 18.4 | 25 |  |  |  |  | activity at 24 µM (HoblOBP3; [9]): 70%; activity at 24 µM (HoblOBP4; [9]): 51% |
| CCC/C=C\CO [cis-2-Hexen-1-ol] |  |  | 70 | 42 |  |  | > 50 | > 50 | 14 | 10.3 |  |

— paper PMC3871601, “Potential Cooperations between Odorant-Binding Proteins of the Scarab Beetle Holotrichia oblita Faldermann (Coleoptera: Scarabaeidae)” (PLoS ONE, 2013)
